Where a name gives a salt, the structure may show the parent alone. Read-outs that look alike come from different tables or passages of the source.
Tests used:
in vivo = details: iv; for mortality: read-out: Toxicity (Mortality); for LD50: read-out: Toxicity: LD50
Text: *LD50 or percentage of mortality which is given between brackets

anaesthetized dog [1] = experiment: Antiangorous activity on anaesthetized dog: consumption of oxygen in the left ventricule and cardiac effort (KATZ's index); type: in vivo; details: for inhibition in vivo at 2.5 mg/kg / inhibition in vivo at 5 mg/kg / inhibition in vivo at 0.14 mg/kg / inhibition in vivo at 2.2 mg/kg / inhibition in vivo at […] / inhibition in vivo at 4.6 mg/kg: Canis lupus familiaris, iv; for inhibition in vivo at […]: 0.15 mg/kg i.v. slow perfusion
In short: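 Katz index taken as mean arterial pressure multiplied by ECG (D2) heart rate, and myocardial O2 use as coronary sinus flow via modified Morawitz cannula times coronary arteriovenous O2 difference. Animals: pentobarbital-anaesthetized dogs (30 mg/kg i.v.), test compounds infused slowly intravenously.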

anaesthetized dog [2] = experiment: Activity on the cerebral circulation, anaesthetized dog; type: in vivo; details: for change in vivo at 5 mg/kg / change in vivo at 2.5 mg/kg: Canis lupus familiaris, iv; for Increase of the extraction of cerebral oxygen: (A-V)/A
Description: The activity on the cerebral circulation was tested on an anaesthetized dog (sodium pentobarbital 30 mg/kg/i.v.). The vertebral artery flow was measured by means of an electromagnetic perivascular or ultrasonic Doppler effect probe. The intracerebral vascular resistance was estimated by the back pressure of the internal carotid artery. […] The increase in the extraction of cerebral oxygen was estimated by the following equation:(A-V)/A in which: A represents the volume of oxygen in the arterial blood (% volume) measured by hemoreflectometry (KIPP and ZONEN's apparatus) and quantity determination of the haemoglobin (DRABKIN's method). V represents the volume of oxygen in the cerebral venous blood (internal maxillary vein). […] It should be noted that the compounds tested were injected intravenously (rapid injection).

[3] = 2.5 mg/kg i.v. slow perfusion, read-out: Diminution in consumption of O2
[4] = 2.5 mg/kg i.v. slow perfusion, read-out: Diminution in the cardiac effort (IK)
[5] = dog, 5 mg/kg i.v. rapid injection, read-out: Internal carotid artery back pressure
[6] = dog, 5 mg/kg i.v. rapid injection, read-out: Systemic average arterial pressure
[7] = dog, 5 mg/kg i.v. rapid injection, read-out: Vertebral artery flow
[8] = dog, 5 mg/kg i.v. rapid injection
[9] = dog, 2,5 mg/kg i.v. rapid injection, read-out: Internal carotid artery back pressure
[10] = dog, 2,5 mg/kg i.v. rapid injection, read-out: Systemic average arterial pressure
[11] = dog, 2,5 mg/kg i.v. rapid injection

SMILES | Diminution in consumption of O2: in time (anaesthetized dog [1]; 2.5 mg/kg i.v. slow perfusion) | Diminution in the cardiac effort (IK): in time (anaesthetized dog [1]; 2.5 mg/kg i.v. slow perfusion) | inhibition in vivo at 2.5 mg/kg (anaesthetized dog [1]; [3]) | inhibition in vivo at 2.5 mg/kg (anaesthetized dog [1]; [4]) | change in vivo at 5 mg/kg (anaesthetized dog [2]; [5]) | change in vivo at 5 mg/kg (anaesthetized dog [2]; [6]) | change in vivo at 5 mg/kg (anaesthetized dog [2]; [7]) | Systemic average arterial pressure: in time (anaesthetized dog [2]; [8]) | Vertebral artery flow: in time (anaesthetized dog [2]; [8]) | LD50 (in vivo) | other results
COc1cc(/C=C/C(=O)N2CCN(CC(O)COc3ccccc3C(C)=O)CC2)cc(OC)c1OC (centres unmarked) [760 455] | 15 min | 30 min | 45% | 24% | -90% | -39% | 120% | 30 min | 6 min | – | mortality (in vivo; 255 mg/kg i.v.): 50%; Internal carotid artery back pressure: in time (anaesthetized dog [2]; [8]): 20 min
COc1cc(/C=C/C(=O)N2CCN(CC(O)CN(C)c3ccccc3)CC2)cc(OC)c1OC (centres unmarked) [770 495, 1-(3-N-methylanilino-2-hydroxy)propyl-4-(3,4,5-trimethoxycinnamoyl)piperazine, hydrated oxalate] | 45 min | 30 min | 74% | 43% | – | – | – | – | – | 175 mg/kg | change in vivo at 2.5 mg/kg (anaesthetized dog [2]; [9]): -17%; change in vivo at 2.5 mg/kg (anaesthetized dog [2]; [10]): -20%; Internal carotid artery back pressure: in time (anaesthetized dog [2]; [11]): 60 min; Systemic average arterial pressure: in time (anaesthetized dog [2]; [11]): 20 min; Vertebral artery flow: in time (anaesthetized dog [2]; [11]): 60 min; Increase of the extraction of cerebral oxygen (anaesthetized dog [2]; [11]): +188%
C=CCc1ccccc1OCC(O)CN1CCN(C(=O)/C=C/c2cc(OC)c(OC)c(OC)c2)CC1 (centres unmarked) [760 518] | – | – | – | – | -48% | -15% | 180% | 5 min | 5 min | – | Internal carotid artery back pressure: in time (anaesthetized dog [2]; [8]): 5 min
COc1cc(/C=C/C(=O)N2CCN(CC(O)COc3cccc(C(C)=O)c3)CC2)cc(OC)c1OC (centres unmarked) [770 458] | 23 min | 15 min | 72% | 25% | – | – | – | – | – | 250 mg/kg | change in vivo at 2.5 mg/kg (anaesthetized dog [2]; [9]): -11%; change in vivo at 2.5 mg/kg (anaesthetized dog [2]; [10]): -10%; Internal carotid artery back pressure: in time (anaesthetized dog [2]; [11]): 15 min; Systemic average arterial pressure: in time (anaesthetized dog [2]; [11]): 15 min; Increase of the extraction of cerebral oxygen (anaesthetized dog [2]; [11]): +35%
COc1cc(/C=C/C(=O)N2CCCN(CC(O)COc3ccccc3)CC2)cc(OC)c1OC (centres unmarked) [760 388] | – | – | – | – | -65% | -44% | 225% | 50 min | 50 min | – | Internal carotid artery back pressure: in time (anaesthetized dog [2]; [8]): 50 min
COc1cc(/C=C/C(=O)N2CCN(CC(O)COc3cccc(OC)c3OC)CC2)cc(OC)c1OC (centres unmarked) [760 393] | 15 min | 15 min | 47% | 5% | -62% | -33% | 150% | 30 min | < 2 min | 319 mg/kg | –
COc1cc(/C=C/C(=O)N2CCN(CC(O)CSc3ccc(C)cc3)CC2)cc(OC)c1OC (centres unmarked) [770 059] | – | – | – | – | – | – | – | – | – | 91 mg/kg | Diminution in consumption of O2: in time (anaesthetized dog [1]; 5 mg/kg i.v. slow perfusion): 15 min; Diminution in the cardiac effort (IK): in time (anaesthetized dog [1]; 5 mg/kg i.v. slow perfusion): 15 min; inhibition in vivo at 5 mg/kg (anaesthetized dog [1]; 5 mg/kg i.v. slow perfusion, read-out: Diminution in consumption of O2): 64%; inhibition in vivo at 5 mg/kg (anaesthetized dog [1]; 5 mg/kg i.v. slow perfusion, read-out: Diminution in the cardiac effort (IK)): 12%
COc1cc(/C=C/C(=O)N2CCN(CC(O)COc3ccc(NC(=O)NC4CCCCC4)c4c3OCCO4)CC2)cc(OC)c1OC (centres unmarked) [770 081] | – | – | – | – | – | – | – | – | – | 148 mg/kg | Diminution in consumption of O2: in time (anaesthetized dog [1]; 0.14 mg/kg i.v. slow perfusion): 53 min; Diminution in the cardiac effort (IK): in time (anaesthetized dog [1]; 0.14 mg/kg i.v. slow perfusion): 15 min; inhibition in vivo at 0.14 mg/kg (anaesthetized dog [1]; 0.14 mg/kg i.v. slow perfusion, read-out: Diminution in consumption of O2): 58%; inhibition in vivo at 0.14 mg/kg (anaesthetized dog [1]; 0.14 mg/kg i.v. slow perfusion, read-out: Diminution in the cardiac effort (IK)): 20%
COc1cc(/C=C/C(=O)N2CCN(CC(O)COc3ccc(C(C)=O)cc3)CC2)cc(OC)c1OC (centres unmarked) [760 385] | – | – | – | – | – | – | – | – | – | – | mortality (in vivo; 351 mg/kg i.v.): 10%; Diminution in consumption of O2: in time (anaesthetized dog [1]; 2.2 mg/kg i.v. slow perfusion): 15 min; Diminution in the cardiac effort (IK): in time (anaesthetized dog [1]; 2.2 mg/kg i.v. slow perfusion): 15 min; inhibition in vivo at 2.2 mg/kg (anaesthetized dog [1]; 2.2 mg/kg i.v. slow perfusion, read-out: Diminution in consumption of O2): 65%; inhibition in vivo at 2.2 mg/kg (anaesthetized dog [1]; 2.2 mg/kg i.v. slow perfusion, read-out: Diminution in the cardiac effort (IK)): 16%
COc1cc(/C=C/C(=O)N2CCN(CC(O)COc3ccc(NC(=O)NC(C)C)c4c3OCCO4)CC2)cc(OC)c1OC (centres unmarked) [770 630] | – | – | – | – | – | – | – | – | – | – | mortality (in vivo; 400 mg/kg i.v.): 40%; inhibition in vivo at […] (anaesthetized dog [1]; read-out: Diminution in consumption of O2): 58%; inhibition in vivo at […] (anaesthetized dog [1]; read-out: Diminution in the cardiac effort (IK)): 32%
COc1cc(/C=C/C(=O)N2CCN(CC(O)COc3ccc(SC)cc3)CC2)cc(OC)c1OC (centres unmarked) [760 507] | – | – | – | – | – | – | – | – | – | 185 mg/kg | Diminution in consumption of O2: in time (anaesthetized dog [1]; 4.6 mg/kg i.v. slow perfusion): 60 min; Diminution in the cardiac effort (IK): in time (anaesthetized dog [1]; 4.6 mg/kg i.v. slow perfusion): 30 min; inhibition in vivo at 4.6 mg/kg (anaesthetized dog [1]; 4.6 mg/kg i.v. slow perfusion, read-out: Diminution in consumption of O2): 68%; inhibition in vivo at 4.6 mg/kg (anaesthetized dog [1]; 4.6 mg/kg i.v. slow perfusion, read-out: Diminution in the cardiac effort (IK)): 32%
